Results reported in patent US9918488B2, “Method for sterilizing drinks contaminated with acetic acid bacteria” (LANXESS Deutschland GmbH, priority 2014, dated 2018).
Converted amounts (≈) assume the structure as drawn.

How the values were obtained:
[1] = tested on: mixture of Asaia bogorensis, Asaia lannaensis, Gluconobacter oxydans and Gluconacetobacter liquefaciens; experiment: microbe, parasite or virus in culture; settings: 168 h, read-out: MIC ppm after one week
Excerpt: (§1) A drink was contaminated with a particular amount of a mixture of microorganisms and a mixture of preservatives was investigated for efficacy compared to the individual substances. The mixture of bacteria is composed of Asaia bogorensis, Asaia lannaensis, Gluconobacter oxydans and Gluconacetobacter liquefaciens.
(§2) The following relationships apply: QA/Qa+QB/Qb+QC/Qc=SI • Qa=concentration of substance A which is the MIC • Qb=concentration of substance B which is the MIC • Qc=concentration of substance C which is the MIC • QA=concentration of substance A in the concentration of A/B/C at which microbial growth is suppressed • QB=concentration of substance B in the concentration of A/B/C at which microbial growth is suppressed • QC=concentration of substance C the concentration of A/B/C at which microbial growth is suppressed • SI=Synergy Index • SI=1 means additivity • SI>1 means antagonism • SI<1 means synergism

[2] = tested on: mixture of Asaia bogorensis, Asaia lannaensis, Gluconobacter oxydans and Gluconacetobacter liquefaciens; settings: individual active ingredient; substrate iced tea; 200 cfu/mL per bacterium in the mixture
Excerpt: as §1, §2

`COC(=O)OC(=O)OC` [Dimethyl dicarbonate, dimethyl dicarbonate] was tested, and the MIC [1] was 300 µg/mL (≈ 2240 µM) and the “MIC ppm after one week” value [2] was 300 µg/mL (≈ 2240 µM).

In the case of `O=S([O-])OS(=O)[O-].[K+].[K+]` [Potassium disulphite, potassium disulphite], the MIC [1] was 60 µg/mL and the “MIC ppm after one week” value [2] was 60 µg/mL.

`O=C([O-])c1ccccc1.[Na+]` [Sodium benzoate, sodium benzoate] was tested, and the “MIC ppm after one week” value [2] was 550 µg/mL.

`C/C=C/C=C/C(=O)[O-].[K+]` [Potassium sorbate, potassium sorbate] was tested, and the MIC [1] was 750 µg/mL.
